The target of one assay is Activated CDK2/CyclinA (Homo sapiens, UniProt P24941). Kind of assay: Activated CDK2/CyclinA kinase inhibitory activity assay. The class given is biochemical. The conditions noted are these: Example 10. As for the experimental part:
(§1) Activated CDK2/CyclinA (Brown et al, Nat. Cell Biol., 1, pp 438-443, 1999; Lowe, E. D., et al Biochemistry, 41, pp 15625-15634, 2002) is diluted to 125 pM in 2.5× strength assay buffer (50 mM MOPS pH 7.2, 62.5 mM β-glycerophosphate, 12.5 mM EDTA, 37.5 mM MgCl2, […], 2.5 mM DTT, 2.5 mM sodium orthovanadate, 0.25 mg/ml bovine serum albumin), and 10 μl mixed with 10 μl of histone substrate mix (60 μl bovine histone H1 (Upstate Biotechnology, 5 mg/ml), 940 μl H2O, 35 μCi γ^33P-ATP) and added to 96 well plates along with 5 μl of various dilutions of the test compound in DMSO (up to 2.5%). The reaction is allowed to proceed for 2 to 4 hours before being stopped with an excess of ortho-phosphoric acid (5 μl at 2%).
γ^33P-ATP which remains unincorporated into the histone H1 is separated from phosphorylated histone H1 on a Millipore MAPH filter plate. The wells of the MAPH plate are wetted with 0.5% orthophosphoric acid, and then the results of the reaction are filtered with a Millipore vacuum filtration unit through the wells. Following filtration, the residue is washed twice with 200 μl of 0.5% orthophosphoric acid. Once the filters have dried, 20 μl of Microscint 20 scintillant is added, and then counted on a Packard Topcount for 30 seconds. […]

The next assay deals with T1, CDK1/CyclinB (Homo sapiens, UniProt P06493).
T1 construct: purchased Upstate Discovery
T1 sequence (P06493 whole entry): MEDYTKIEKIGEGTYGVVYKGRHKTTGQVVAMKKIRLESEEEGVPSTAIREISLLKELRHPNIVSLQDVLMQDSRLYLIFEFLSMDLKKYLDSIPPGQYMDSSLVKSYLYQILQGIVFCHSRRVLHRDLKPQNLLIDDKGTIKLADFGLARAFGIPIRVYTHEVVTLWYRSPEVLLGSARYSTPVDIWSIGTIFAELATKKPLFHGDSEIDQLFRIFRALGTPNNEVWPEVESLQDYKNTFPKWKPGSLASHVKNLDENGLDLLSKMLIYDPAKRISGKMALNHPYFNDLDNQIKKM
T1 sequence (P14635 whole entry partner): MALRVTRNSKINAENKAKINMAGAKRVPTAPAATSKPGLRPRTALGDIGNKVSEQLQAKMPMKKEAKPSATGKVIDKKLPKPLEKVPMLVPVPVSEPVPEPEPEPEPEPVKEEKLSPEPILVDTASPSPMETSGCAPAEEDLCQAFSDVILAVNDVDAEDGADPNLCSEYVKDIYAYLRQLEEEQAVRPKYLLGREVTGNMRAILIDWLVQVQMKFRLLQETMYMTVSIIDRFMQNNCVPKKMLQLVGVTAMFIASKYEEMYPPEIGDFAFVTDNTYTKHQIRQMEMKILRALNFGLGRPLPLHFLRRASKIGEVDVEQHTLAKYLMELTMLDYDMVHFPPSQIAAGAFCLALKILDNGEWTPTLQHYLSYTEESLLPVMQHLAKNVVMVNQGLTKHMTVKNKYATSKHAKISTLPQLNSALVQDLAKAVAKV
In words: Activated CDK1/CyclinB kinase inhibitory activity assay. The conditions noted are these: Example 11, read-out: IC50 in the CDK2 assay (stated under the CDK1/CyclinB assay, Example 11). The class given is biochemical. As for the experimental part: as §1
γ^33P-ATP which remains unincorporated into the histone H1 is separated from phosphorylated histone H1 on a Millipore MAPH filter plate. The wells of the MAPH plate are wetted with 0.5% orthophosphoric acid, and then the results of the reaction are filtered with a Millipore vacuum filtration unit through the wells. Following filtration, the residue is washed twice with 200 μl of 0.5% orthophosphoric acid. Once the filters have dried, 20 μl of Microscint 20 scintillant is added, and then counted on a Packard Topcount for 30 seconds. The % inhibition of the CDK2 activity is calculated and plotted in order to determine the concentration of test compound required to inhibit 50% of the CDK2 activity (IC50).
CDK1/CyclinB assay.is identical to the CDK2/CyclinA above except that CDK1/CyclinB (Upstate Discovery) is used and the enzyme is diluted to 6.25 nM.

In another assay the target is T2, AuroraB (Homo sapiens, UniProt Q96GD4).
T2 construct: purchased ProQinase
T2 sequence (Q96GD4 whole entry): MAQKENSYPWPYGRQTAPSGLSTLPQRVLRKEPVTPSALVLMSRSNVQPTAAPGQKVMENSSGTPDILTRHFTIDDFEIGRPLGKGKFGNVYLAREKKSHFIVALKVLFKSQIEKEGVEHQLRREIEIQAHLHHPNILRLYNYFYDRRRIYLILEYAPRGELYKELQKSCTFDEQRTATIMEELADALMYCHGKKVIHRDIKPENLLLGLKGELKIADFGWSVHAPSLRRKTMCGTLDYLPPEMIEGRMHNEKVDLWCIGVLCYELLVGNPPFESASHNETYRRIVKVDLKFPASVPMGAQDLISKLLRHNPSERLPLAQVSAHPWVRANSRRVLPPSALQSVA
Kind of assay: Aurora B kinase assay (DELFIA). The class given is biochemical. The conditions noted are these: 15 μM ATP. On the procedure:
Aurora activity was determined using a Dissociative Enhanced Lanthanide Fluoro Immuno Assay (DELFIA) with a GSK3-derived biotinylated peptide. The amount of phosphorylated peptide produced is quantified by means of a phospho-specific primary antibody and europium-labelled anti-rabbit IgG antibody using time-resolved fluorescence at λex=337 nm, λem=620 nm.
Assay reactions are set up in 96 well plates in a total reaction volume of 25 μl with 5 nM AuroraB (ProQinase), 3 μM Biotin-[…], 15 μM ATP and various dilutions of compound in 25 mM TRIS pH 8.5, 0.1 mg/ml BSA, 0.025% Surfact-Amps 20, 5 mM MgCl2, 1 mM DTT, & 2.5% DMSO. The reaction is allowed to proceed for 90 minutes at room temperature before stopping with 100 μl STOP buffer containing 100 mM EDTA, 0.05% Surfact-amps20 (Pierce) and 1× Blocker™ BSA in TBS (Pierce).
The detection step was carried out as described for AuroraA.

The next assay relates to HCT-116 cell line. In words: Anti-proliferative activity, Alamar Blue assay. The class given is cell-based. The conditions noted are these: Homo sapiens, read-out: IC50 against the HCT-116 cell line. As for the experimental part:
The anti-proliferative activities of compounds of the invention can be determined by measuring the ability of the compounds to inhibition of cell growth in a number of cell lines. Inhibition of cell growth is measured using the Alamar Blue assay (Nociari, M. M, Shalev, A., Benias, P., Russo, C. Journal of Immunological Methods 1998, 213, 157-167). The method is based on the ability of viable cells to reduce resazurin to its fluorescent product resorufin. For each proliferation assay cells are plated onto 96 well plates and allowed to recover for 16 hours prior to the addition of inhibitor compounds for a further 72 hours. At the end of the incubation period 10% (v/v) Alamar Blue is added and incubated for a further 6 hours prior to determination of fluorescent product at […]. In the case of the non-proliferating cell assay cells are maintained at confluence for 96 hour prior to the addition of inhibitor compounds for a further 72 hours. The number of viable cells is determined by Alamar Blue assay as before. In addition, any morphological changes are recorded. All cell lines can be obtained from ECACC (European Collection of cell Cultures).
In particular, compounds of the invention were tested against the HCT-116 cell line (ECACC Reference: 91091005) derived from human colon carcinoma.
On the technique in general: The colour change of resazurin is a common sign of viable cells or microbes.

For another assay, the target named is GSK3β (human) (Homo sapiens, UniProt P49841). Kind of assay: Inhibitory activity against Glycogen Synthase Kinase-3. The assay is classed as biochemical. As for the experimental part:
GSK3β (human) is diluted to a 10× working stock in 50 mM Tris pH 7.5, 0.1 mM EGTA, 0.1 mM sodium vanadate, 0.1% β-mercaptoethanol, 1 mg/ml BSA. One unit equals the incorporation of 1 nmol of phosphate per minute phospho-glycogen synthase peptide 2 per minute.
In a final reaction volume of 25 μl, GSK3β (5-10 mU) is incubated with 8 mM MOPS 7.0, 0.2 mM EDTA, 20 μM […](p)EDEEE (phospho GS2 peptide), 10 mM MgAcetate and [γ-^33P-ATP] (specific activity approx 500 cpm/pmol, concentration as required). The reaction is initiated by the addition of Mg^2+[γ-^33P-ATP]. After incubation for 40 minutes at room temperature the reaction is stopped by the addition of 5 μl of a 3% phosphoric acid solution. 10 μl of the reaction is spotted onto a P30 filter mat and washed 3 times for 5 minutes in 50 mM phosphoric acid and once in methanol prior to drying and counting.

Read-outs that look alike come from different tables or passages of the source.

Chain of GSK3β (human) (P49841 whole entry): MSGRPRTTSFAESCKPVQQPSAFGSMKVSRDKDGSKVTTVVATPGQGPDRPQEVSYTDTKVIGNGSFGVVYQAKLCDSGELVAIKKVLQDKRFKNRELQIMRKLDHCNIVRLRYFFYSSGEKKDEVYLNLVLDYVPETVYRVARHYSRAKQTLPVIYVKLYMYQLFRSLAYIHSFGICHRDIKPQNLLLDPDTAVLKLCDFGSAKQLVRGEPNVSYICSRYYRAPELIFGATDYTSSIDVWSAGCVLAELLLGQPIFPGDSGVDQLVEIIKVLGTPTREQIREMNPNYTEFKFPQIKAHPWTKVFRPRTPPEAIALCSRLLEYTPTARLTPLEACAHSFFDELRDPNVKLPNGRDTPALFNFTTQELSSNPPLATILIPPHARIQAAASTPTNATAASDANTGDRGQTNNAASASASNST

Turning to `O=C(Nc1scnc1-c1nc2ccccc2[nH]1)c1c(F)cccc1F` [Example 1, N-[4-(1H-benzoimidazol-2-yl)-thiazol-5-yl]-2,6-difluoro-benzamide], the IC50 on Activated CDK2/CyclinA was less than 10 µM; on CDK1/CyclinB it was less than 10 µM; against AuroraB it was less than 0.1 µM; in the assay with HCT-116 cell line (HCT-116, 72 hours, Alamar Blue), less than 15 µM; at GSK3β (human), less than 1 µM.
For the compound `O=C(Nc1scnc1-c1nc2ccc(CN3CCOCC3)cc2[nH]1)c1c(F)cccc1F` [Example 2, 2,6-difluoro-N-[4-(6-morpholin-4ylmethyl-1H-benzoimidazol-2-yl)-thiazol-5-yl]benzamide], the IC50 against Activated CDK2/CyclinA was less than 10 µM; at CDK1/CyclinB, less than 10 µM; in the assay on HCT-116 cell line (HCT-116, 72 hours, Alamar Blue), less than 1 µM.
As to `O=C(Nc1csnc1-c1nc2cc(CN3CCOCC3)ccc2[nH]1)c1c(F)cccc1F` [Example 3, 2,6-difluoro-N-[3-(5-morpholin-4-ylmethyl-1H-benzoimidazol-2-yl)-isothiazol-4-yl]-benzamide], the IC50 at CDK1/CyclinB was less than 10 µM; in the assay on HCT-116 cell line (HCT-116, 72 h) it was less than 15 µM.

Values taken from patent US20080312223A1, “Thiazole And Isothiazole Derivatives That Modulate The Activity Of CDK, GSK And Aurora Kinases” (ASTEX THERAPEUTICS LIMITED, priority 2004, published 2008).
